From ChEMBL document CHEMBL1201862, “PubChem BioAssay data set” (2004)
Calls of active or inactive are those of the source.

Legend:
[1] = biological target: Large T antigen (Simian virus 40, UniProt P03070); type: functional, Betapolyomavirus macacae;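 further: Confirmatory-stage PubChem screen for compounds that inhibit SV40 T antigen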
[2] = biological target: Glyceraldehyde-3-phosphate dehydrogenase (Homo sapiens, UniProt P04406)
[3] = biological target: Cytochrome P450 3A4 (Homo sapiens, UniProt P08684); conditions: Potency;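 further: confirmatory qHTS run detecting inhibitors and substrates of CYP3A4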
Chain of Cytochrome P450 3A4 (P08684 whole entry): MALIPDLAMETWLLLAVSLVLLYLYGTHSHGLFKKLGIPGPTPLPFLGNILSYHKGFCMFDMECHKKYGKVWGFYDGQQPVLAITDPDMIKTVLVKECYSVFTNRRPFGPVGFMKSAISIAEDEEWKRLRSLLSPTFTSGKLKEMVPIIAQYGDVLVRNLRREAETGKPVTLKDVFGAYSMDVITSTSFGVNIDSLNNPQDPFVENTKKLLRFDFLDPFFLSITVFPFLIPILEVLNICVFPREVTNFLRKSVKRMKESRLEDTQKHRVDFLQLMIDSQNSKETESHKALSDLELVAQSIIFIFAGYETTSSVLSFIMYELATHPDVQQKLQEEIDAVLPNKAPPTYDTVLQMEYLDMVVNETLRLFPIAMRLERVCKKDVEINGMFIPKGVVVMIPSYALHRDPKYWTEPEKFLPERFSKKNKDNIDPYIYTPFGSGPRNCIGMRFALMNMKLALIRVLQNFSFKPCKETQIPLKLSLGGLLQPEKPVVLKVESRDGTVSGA

[4] = HEK293 cell cytotoxicity, dose response, cytotoxicity control, plate reader, cherry-picked samples (AID 743446); type: functional, cell-based
[5] = HepG2 cell cytotoxicity, dose response, cytotoxicity control, plate reader, cherry-pick, antagonist series (AID 743416); type: functional, cell-based
[6] = LGR2 antagonists, dose response, cell-based, HEK293, CRE-luciferase reporter, cherry pick, set 2 (AID 743343); type: functional;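 further: transfected cells were stimulated with diluted bursicon conditioned medium after compound addition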
[7] = A549 cell cytotoxicity, dose response, cytotoxicity control, plate reader, cherry-pick, antagonist series (AID 743412); type: functional, cell-based
[8] = intracellular Trypanosoma cruzi inhibitors in host cells – cell-based, plate reader, cherry-pick samples, set 3, dose response (AID 651818); type: functional;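 further: compounds incubated with infected cells for about four days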
[9] = MC4R antagonists, dose response, counter-screen for LGR2 antagonist project, cell-based, plate reader, cherry pick (AID 743444); type: functional;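 further: transfected HEK 293 cells stimulated with alpha-MSH peptide; potency of inhibitors of the alpha-MSH evoked signal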
[10] = Luminescence Cell-Based Dose Response HTS to Identify Activators of Luciferase Translation or Activity in H4 […] Cells. [Related pubchem assays: 1829 (Project Summary), 1814 (Primary HTS)]; type: functional
[11] = test system: H4; assay: Luminescence Cell-Based Dose Response HTS to Identify Activators of 5'UTR Stem-Loop Driven Prion Protein mRNA Translation in H4 Neuroglioblastoma Cells. [Related pubchem assays: 1829 (Project Summary), 1814 (Primary HTS)]; type: functional; conditions: Homo sapiens
[12] = Luminescence Cell-Based Dose Confirmation HTS to Identify Activators of 5'UTR Stem-Loop Driven Alpha-Synuclein mRNA Translation in H4 Neuroglioblastoma Cells. [Related pubchem assays: 1829 (Project Summary), 1814 (Primary HTS)]; type: functional
[13] = biological target: T1, Leucine aminopeptidase (Plasmodium falciparum 3D7, UniProt Q8IL11); assay: P. falciparum M17LAP inhibitors, primary screen, biochemical, fluorogenic H-Leu-NHMec substrate, 1536-well (AID 1619); type: functional
T1 sequence (Q8IL11 whole entry): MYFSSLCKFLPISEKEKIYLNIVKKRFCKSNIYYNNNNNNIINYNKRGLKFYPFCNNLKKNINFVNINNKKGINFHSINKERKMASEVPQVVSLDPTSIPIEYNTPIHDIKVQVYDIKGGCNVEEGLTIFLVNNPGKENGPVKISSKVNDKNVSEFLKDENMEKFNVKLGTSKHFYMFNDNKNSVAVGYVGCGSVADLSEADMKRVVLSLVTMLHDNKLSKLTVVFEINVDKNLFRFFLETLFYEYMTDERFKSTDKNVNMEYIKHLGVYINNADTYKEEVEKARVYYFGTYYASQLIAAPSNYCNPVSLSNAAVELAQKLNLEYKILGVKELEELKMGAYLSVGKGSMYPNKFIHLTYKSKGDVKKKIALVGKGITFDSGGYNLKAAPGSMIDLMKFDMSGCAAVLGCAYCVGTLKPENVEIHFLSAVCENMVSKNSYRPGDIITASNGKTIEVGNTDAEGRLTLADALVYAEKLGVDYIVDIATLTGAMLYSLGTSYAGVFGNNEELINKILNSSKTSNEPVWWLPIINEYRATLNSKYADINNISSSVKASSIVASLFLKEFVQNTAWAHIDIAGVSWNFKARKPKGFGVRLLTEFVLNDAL

[14] = biological target: Cytochrome P450 2C19 (Homo sapiens, UniProt P33261); assay: Cytochrome panel assay with activity outcomes. Panel member name: p450-cyp2c19 Compounds with AC50 equal or less than 10 uM are considered active; type: functional; conditions: read-out: AC50
Chain of Cytochrome P450 2C19 (P33261 whole entry): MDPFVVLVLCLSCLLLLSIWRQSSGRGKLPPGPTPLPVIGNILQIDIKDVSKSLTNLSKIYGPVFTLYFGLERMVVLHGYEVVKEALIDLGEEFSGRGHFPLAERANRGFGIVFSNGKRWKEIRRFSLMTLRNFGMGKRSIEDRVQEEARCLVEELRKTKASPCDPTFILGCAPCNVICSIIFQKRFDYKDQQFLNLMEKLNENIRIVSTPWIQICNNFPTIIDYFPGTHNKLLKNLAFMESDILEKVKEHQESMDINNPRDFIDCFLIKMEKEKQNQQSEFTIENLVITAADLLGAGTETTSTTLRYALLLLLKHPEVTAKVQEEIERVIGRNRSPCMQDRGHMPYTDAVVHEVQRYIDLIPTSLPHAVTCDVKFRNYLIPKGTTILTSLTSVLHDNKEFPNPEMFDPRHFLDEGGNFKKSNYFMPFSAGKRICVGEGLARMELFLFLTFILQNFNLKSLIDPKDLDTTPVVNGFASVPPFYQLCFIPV

[15] = biological target: Cytochrome P450 2C9 (Homo sapiens, UniProt P11712)
Chain of Cytochrome P450 2C9 (P11712 whole entry): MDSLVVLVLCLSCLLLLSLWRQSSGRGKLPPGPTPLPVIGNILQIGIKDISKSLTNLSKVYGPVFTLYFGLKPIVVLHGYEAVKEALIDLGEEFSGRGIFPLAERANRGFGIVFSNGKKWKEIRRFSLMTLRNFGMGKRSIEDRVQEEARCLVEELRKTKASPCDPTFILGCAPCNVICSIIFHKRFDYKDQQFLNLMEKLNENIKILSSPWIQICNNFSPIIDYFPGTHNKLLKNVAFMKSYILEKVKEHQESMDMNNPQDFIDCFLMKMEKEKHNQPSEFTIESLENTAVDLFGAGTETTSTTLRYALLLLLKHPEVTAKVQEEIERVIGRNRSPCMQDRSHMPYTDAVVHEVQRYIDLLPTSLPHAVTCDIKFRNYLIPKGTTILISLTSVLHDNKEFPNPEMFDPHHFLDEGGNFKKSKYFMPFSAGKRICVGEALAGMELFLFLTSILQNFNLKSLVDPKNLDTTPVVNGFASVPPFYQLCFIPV

[16] = biological target: T2, Cytochrome P450 1A2 (Homo sapiens, UniProt P05177);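 further: PubChem cytochrome P450 panel assay, CYP1A2 panel member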
T2 sequence (P05177 whole entry): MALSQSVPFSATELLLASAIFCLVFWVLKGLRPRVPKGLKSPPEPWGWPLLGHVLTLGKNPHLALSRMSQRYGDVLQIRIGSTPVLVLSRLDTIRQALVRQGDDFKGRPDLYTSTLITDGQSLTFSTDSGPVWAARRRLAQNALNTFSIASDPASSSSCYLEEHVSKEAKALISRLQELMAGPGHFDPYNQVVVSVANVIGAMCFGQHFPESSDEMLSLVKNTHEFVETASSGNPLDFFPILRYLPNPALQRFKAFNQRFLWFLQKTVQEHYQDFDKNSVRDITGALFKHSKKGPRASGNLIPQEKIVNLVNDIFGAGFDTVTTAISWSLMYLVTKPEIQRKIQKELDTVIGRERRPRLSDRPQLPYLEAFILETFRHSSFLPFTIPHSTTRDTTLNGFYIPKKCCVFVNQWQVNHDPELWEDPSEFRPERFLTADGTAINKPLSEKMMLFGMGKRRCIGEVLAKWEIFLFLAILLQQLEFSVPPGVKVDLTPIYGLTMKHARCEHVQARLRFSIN

[17] = biological target: T3, Rac GTPase-activating protein 1 (Homo sapiens, UniProt Q9H0H5); assay: MgcRacGAP GTPase-activating activity inhibitors, confirmation, biochemical, ADP Hunter fluorescence, primary and confirmatory (AID 624330); type: functional
T3 sequence (Q9H0H5 whole entry): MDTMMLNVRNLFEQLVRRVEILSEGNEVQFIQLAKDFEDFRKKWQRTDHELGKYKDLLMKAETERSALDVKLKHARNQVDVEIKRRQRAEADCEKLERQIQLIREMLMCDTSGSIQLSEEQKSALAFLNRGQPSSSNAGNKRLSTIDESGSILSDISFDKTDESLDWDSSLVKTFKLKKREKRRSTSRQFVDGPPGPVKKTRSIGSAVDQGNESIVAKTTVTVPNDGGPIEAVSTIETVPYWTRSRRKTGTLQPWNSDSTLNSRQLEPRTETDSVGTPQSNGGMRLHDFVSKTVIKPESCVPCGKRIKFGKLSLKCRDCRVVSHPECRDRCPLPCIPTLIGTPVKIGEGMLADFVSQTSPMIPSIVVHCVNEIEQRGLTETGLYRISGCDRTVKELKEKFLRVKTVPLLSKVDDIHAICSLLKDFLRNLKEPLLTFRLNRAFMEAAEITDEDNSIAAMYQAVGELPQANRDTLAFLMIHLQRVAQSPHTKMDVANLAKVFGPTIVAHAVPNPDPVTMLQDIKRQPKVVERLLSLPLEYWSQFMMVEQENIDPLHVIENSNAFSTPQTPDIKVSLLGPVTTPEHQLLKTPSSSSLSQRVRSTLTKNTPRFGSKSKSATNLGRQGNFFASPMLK

[18] = test system: BJ; assay: cytotoxicity toward BJ-TERT fibroblasts, dose response, cell-based, RAS-independent, luminescence (AID 1933); type: functional; conditions: Homo sapiens
[19] = test system: BJ; assay: cells; type: functional, cell-based; conditions: Homo sapiens
[20] = test system: BJ; assay: cytotoxicity toward BJ-TERT-LT-ST fibroblasts, dose response, cell-based, RAS-independent, luminescence (AID 1935); type: functional; conditions: Homo sapiens;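 further: BJ fibroblasts immortalized with TERT plus LT and ST oncogenes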
[21] = cytotoxicity toward DRD oncogenic fibroblasts, dose response, cell-based, non-viral oncogenic, luminescence (AID 1934); type: functional; conditions: Homo sapiens

Chain of Large T antigen (P03070 whole entry): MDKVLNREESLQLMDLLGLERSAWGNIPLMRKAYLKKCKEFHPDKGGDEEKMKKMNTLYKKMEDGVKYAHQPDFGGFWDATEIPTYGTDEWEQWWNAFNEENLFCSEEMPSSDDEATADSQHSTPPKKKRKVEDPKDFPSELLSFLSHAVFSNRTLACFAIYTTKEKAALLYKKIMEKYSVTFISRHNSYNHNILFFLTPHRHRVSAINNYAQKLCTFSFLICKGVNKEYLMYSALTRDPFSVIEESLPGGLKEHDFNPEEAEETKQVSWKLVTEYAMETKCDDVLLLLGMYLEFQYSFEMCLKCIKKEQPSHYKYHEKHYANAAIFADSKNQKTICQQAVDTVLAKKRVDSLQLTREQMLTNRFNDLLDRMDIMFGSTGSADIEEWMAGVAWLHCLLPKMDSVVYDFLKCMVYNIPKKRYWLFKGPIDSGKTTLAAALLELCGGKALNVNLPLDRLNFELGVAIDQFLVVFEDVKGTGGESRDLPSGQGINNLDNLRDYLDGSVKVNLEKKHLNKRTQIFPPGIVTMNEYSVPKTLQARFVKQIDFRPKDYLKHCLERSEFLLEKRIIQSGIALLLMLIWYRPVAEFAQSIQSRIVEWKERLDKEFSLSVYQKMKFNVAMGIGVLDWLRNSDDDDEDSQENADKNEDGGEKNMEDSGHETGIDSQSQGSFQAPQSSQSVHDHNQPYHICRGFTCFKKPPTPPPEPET
Chain of Glyceraldehyde-3-phosphate dehydrogenase (P04406 whole entry): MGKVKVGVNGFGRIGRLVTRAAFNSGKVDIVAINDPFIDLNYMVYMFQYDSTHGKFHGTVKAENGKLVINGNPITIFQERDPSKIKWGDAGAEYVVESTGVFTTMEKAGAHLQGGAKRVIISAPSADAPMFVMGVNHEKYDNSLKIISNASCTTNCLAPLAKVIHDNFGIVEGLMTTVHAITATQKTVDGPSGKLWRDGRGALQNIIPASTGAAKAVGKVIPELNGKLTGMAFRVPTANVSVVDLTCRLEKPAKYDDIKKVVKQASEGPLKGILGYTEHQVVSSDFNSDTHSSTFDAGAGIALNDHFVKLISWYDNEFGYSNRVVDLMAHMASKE

## Cc1cccc(C(=O)Nc2ccc(O)cc2)c1
[1]
  IC50: 10.7 µM (active)

## CN1CCN(C2=C(Cl)C(=O)N(c3cccc(C(F)(F)F)c3)C2=O)CC1
[2]
  IC50: > 50 µM (inconclusive)

## CCC(=O)OC1CCC2C3CCc4cc(O)ccc4C3CC[C@]12C (some centres undefined)
[3]
  AC50: 39.8 µM (inconclusive)

## C[C@H](CO)N1C[C@H](C)[C@@H](CN(C)Cc2ccc3c(c2)OCO3)Oc2c(NC(=O)Nc3ccc(C(F)(F)F)cc3)cccc2C1=O
[4]
  AC50: 17.3 µM (active)
[5]
  AC50: 21.2 µM (active)
[6]
  AC50: 19.6 µM (active)
[7]
  AC50: 25.6 µM (active)
[8]
  AC50: 2.74 µM (active)
[9]
  AC50: 11.9 µM (active)

## CCCCOc1ccc(C2CCC(C(C)=O)C(C)C2)cc1 (centres undefined)
[10]
  EC50: 26.8 µM (active)
[11]
  EC50: 41.5 µM (active)
[12]
  EC50: 0.284 µM (active)

## CCOC(=O)c1ccc(NC(=O)CN2C(=O)CSCC2=O)cc1
[13]
  IC50: 41.8 µM (active)

## Cc1nc(NC(=O)c2ccccc2)sc1-c1csc(Nc2ccc(F)cc2)n1
[14]
  AC50: 0.355 µM (inconclusive)
[15]
  AC50: inconclusive
[16]
  AC50: 4.47 µM (inconclusive)

## C/N=c1\scc(C)n1/N=C/c1cc(Br)c(O)c(OC)c1
[1]
  IC50: 5.8 µM (active)
[17]
  IC50: 14.4 µM (active)

## C[C@H]1CN([C@@H](C)CO)C(=O)c2cccc(NC(=O)CCCCCC(=O)Nc3ccccc3N)c2O[C@@H]1CN(C)Cc1ccc2c(c1)OCO2
[8]
  AC50: 1.72 µM (active)

## CC1(C)OC2CC3C4CC(F)C5=CC(=O)C=CC5(C)C4C(O)CC3(C)[C@]2(C(=O)CO)O1 (some centres undefined)
[3]
  AC50: 39.8 µM (inconclusive)

## CCn1c(SCC(=O)c2ccc(OC)cc2)nnc1C1CC1
[15]
  AC50: inconclusive
[16]
  AC50: 17.8 µM (inconclusive)

## N#CCCn1c(=O)c(-c2ccc(Cl)cc2)nc2cnc(Oc3cccc(Cl)c3)nc21
[15]
  AC50: inconclusive

## Cc1ccc2cc(CN(Cc3ccco3)C(=O)c3cccs3)c(O)nc2c1
[18]
  EC50: 13 µM (active)
[19]
  EC50: 74.4 µM (active)
[20]
  EC50: 5.07 µM (active)
[21]
  EC50: 4.87 µM (active)

## Cc1ccc(S(=O)(=O)N(C)C[C@H]2Oc3c(NC(=O)Nc4ccc5c(c4)OCO5)cccc3C(=O)N([C@H](C)CO)C[C@@H]2C)cc1
[8]
  AC50: 6.64 µM (active)

## CCSc1nnc(NC(=O)C2(C)Cc3ccccc3C(=O)O2)s1 (centres undefined)
[13]
  IC50: 33.6 µM (active)

## COc1ccccc1CCn1cnc(-c2ccccc2F)c1CC(C)C
[4]
  AC50: > 52 µM (inactive)
[5]
  AC50: 27.2 µM (active)
[6]
  AC50: 17.5 µM (active)
[7]
  AC50: 27 µM (active)
[9]
  AC50: 18.9 µM (active)
